{"source": "PubChem BioAssay AID1259407", "about": "(Chemical Carcinogenesis Research Information System (CCRIS), 2018)", "tested_on": "CCRIS mutagenicity, Ames/micronucleus/aberration tests", "test": "CCRIS mutagenicity studies", "key": {"[1]": {"settings": "Test System: AMES SALMONELLA TYPHIMURIUM, Strain/Indicator: TA98, Metabolic Activation: NONE, Method: STANDARD PLATE"}, "[2]": {"settings": "Test System: AMES SALMONELLA TYPHIMURIUM, Strain/Indicator: TA100, Metabolic Activation: NONE, Method: STANDARD PLATE"}, "[3]": {"settings": "Test System: E. COLI, Strain/Indicator: WP2 (HCR), Metabolic Activation: NONE, Method: STANDARD PLATE"}, "[4]": {"settings": "Test System: AMES SALMONELLA TYPHIMURIUM, Strain/Indicator: TA98, Metabolic Activation: RAT, LIVER, S-9, AROCLOR 1254, Method: STANDARD PLATE"}, "[5]": {"settings": "Test System: AMES SALMONELLA TYPHIMURIUM, Strain/Indicator: TA100, Metabolic Activation: RAT, LIVER, S-9, AROCLOR 1254, Method: STANDARD PLATE"}, "[6]": {"settings": "Test System: AMES SALMONELLA TYPHIMURIUM, Strain/Indicator: TA1535, Metabolic Activation: NONE, Method: STANDARD PLATE"}, "[7]": {"settings": "Test System: AMES SALMONELLA TYPHIMURIUM, Strain/Indicator: TA1537, Metabolic Activation: NONE, Method: STANDARD PLATE"}, "[8]": {"settings": "Test System: AMES SALMONELLA TYPHIMURIUM, Strain/Indicator: TA98, Metabolic Activation: NONE, Method: PREINCUBATION"}}, "note": "The source made the active and inactive calls. The rule behind the calls is not given here."}
{"smiles": "CC(=O)O[C@@H]1C(=O)O[C@H]2[C@@H]1OC(=O)[C@@H]2OC(C)=O", "values": [{"measurement": "mutagenic call", "setting": "[1]", "value": "inactive; negative"}, {"measurement": "mutagenic call", "setting": "Test System: AMES SALMONELLA TYPHIMURIUM, Strain/Indicator: TA98, Metabolic Activation: S-9, Method: STANDARD PLATE", "value": "inactive; negative"}, {"measurement": "mutagenic call", "setting": "[2]", "value": "inactive; negative"}, {"measurement": "mutagenic call", "setting": "Test System: AMES SALMONELLA TYPHIMURIUM, Strain/Indicator: TA100, Metabolic Activation: S-9, Method: STANDARD PLATE", "value": "inactive; negative"}, {"measurement": "mutagenic call", "setting": "Test System: AMES SALMONELLA TYPHIMURIUM, Strain/Indicator: TA1537, Metabolic Activation: S-9, Method: STANDARD PLATE", "value": "inactive; negative"}, {"measurement": "mutagenic call", "setting": "[3]", "value": "inactive; negative"}, {"measurement": "mutagenic call", "setting": "Test System: E. COLI, Strain/Indicator: WP2 (HCR), Metabolic Activation: S-9, Method: STANDARD PLATE", "value": "inactive; negative"}]}
{"smiles": "CC(C)(Br)C(Br)COP(=O)(OCC(Br)C(C)(C)Br)OCC(Br)C(C)(C)Br", "note": "(stereo not drawn)", "values": [{"measurement": "mutagenic call", "setting": "Test System: AMES SALMONELLA TYPHIMURIUM, Strain/Indicator: TA100, Metabolic Activation: RAT, LIVER, MICROSOMES, PHENOBARBITAL, Method: PREINCUBATION", "value": "inactive; negative"}, {"measurement": "mutagenic call", "setting": "Test System: AMES SALMONELLA TYPHIMURIUM, Strain/Indicator: TA100, Metabolic Activation: RAT, LIVER, MICROSOMES, Method: PREINCUBATION", "value": "inactive; negative"}]}
{"smiles": "CC1(OO)c2ccccc2-c2ccccc21", "values": [{"measurement": "mutagenic call", "setting": "[1]", "value": "active; positive"}, {"measurement": "mutagenic call", "setting": "[4]", "value": "active; positive"}, {"measurement": "mutagenic call", "setting": "[2]", "value": "active; positive"}, {"measurement": "mutagenic call", "setting": "[5]", "value": "active; positive"}]}
{"smiles": "CCOC(=O)NNc1nncc2ccccc12", "values": [{"measurement": "mutagenic call", "setting": "[1]", "value": "inactive; negative"}, {"measurement": "mutagenic call", "setting": "[4]", "value": "inactive; negative"}, {"measurement": "mutagenic call", "setting": "[5]", "value": "inactive; negative"}, {"measurement": "mutagenic call", "setting": "Test System: AMES SALMONELLA TYPHIMURIUM, Strain/Indicator: TA100, Metabolic Activation: RAT, LIVER, S-9, PHENOBARBITAL, Method: STANDARD PLATE", "value": "active; positive"}, {"measurement": "mutagenic call", "setting": "[6]", "value": "inactive; negative"}, {"measurement": "mutagenic call", "setting": "Test System: AMES SALMONELLA TYPHIMURIUM, Strain/Indicator: TA1535, Metabolic Activation: RAT, LIVER, S-9, AROCLOR 1254, Method: STANDARD PLATE", "value": "inactive; negative"}, {"measurement": "mutagenic call", "setting": "[7]", "value": "inactive; negative"}, {"measurement": "mutagenic call", "setting": "Test System: AMES SALMONELLA TYPHIMURIUM, Strain/Indicator: TA1537, Metabolic Activation: RAT, LIVER, S-9, AROCLOR 1254, Method: STANDARD PLATE", "value": "inactive; negative"}, {"measurement": "mutagenic call", "setting": "Test System: AMES SALMONELLA TYPHIMURIUM, Strain/Indicator: TA1538, Metabolic Activation: NONE, Method: STANDARD PLATE", "value": "inactive; negative"}, {"measurement": "mutagenic call", "setting": "Test System: AMES SALMONELLA TYPHIMURIUM, Strain/Indicator: TA1538, Metabolic Activation: RAT, LIVER, S-9, AROCLOR 1254, Method: STANDARD PLATE", "value": "inactive; negative"}, {"measurement": "mutagenic call", "setting": "Test System: UDS RAT HEPATOCYTES, Strain/Indicator: THY INCORP, Metabolic Activation: NONE, Method: AUTORADIOGRAPHY", "value": "inactive; negative"}]}
{"smiles": "S=P(N1CC1)(N1CC1)N1CC1", "values": [{"measurement": "mutagenic call", "setting": "Test System: AMES SALMONELLA TYPHIMURIUM, Strain/Indicator: TA98, Metabolic Activation: HAMSTER, LIVER, S-9, AROCLOR 1254 (30%), Method: PREINCUBATION", "value": "inactive; negative"}, {"measurement": "mutagenic call", "setting": "[8]", "value": "inactive; negative"}, {"measurement": "mutagenic call", "setting": "[1]", "value": "inactive; negative"}, {"measurement": "mutagenic call", "setting": "Test System: AMES SALMONELLA TYPHIMURIUM, Strain/Indicator: TA98, Metabolic Activation: RAT, LIVER, S-9, AROCLOR 1254 (30%), Method: PREINCUBATION", "value": "inactive; negative"}, {"measurement": "mutagenic call", "setting": "Test System: AMES SALMONELLA TYPHIMURIUM, Strain/Indicator: TA100, Metabolic Activation: HAMSTER, LIVER, S-9, AROCLOR 1254 (30%), Method: PREINCUBATION", "value": "active; positive"}, {"measurement": "mutagenic call", "setting": "Test System: AMES SALMONELLA TYPHIMURIUM, Strain/Indicator: TA100, Metabolic Activation: NONE, Method: PREINCUBATION", "value": "active; positive"}, {"measurement": "mutagenic call", "setting": "[2]", "value": "active; positive"}, {"measurement": "mutagenic call", "setting": "Test System: AMES SALMONELLA TYPHIMURIUM, Strain/Indicator: TA100, Metabolic Activation: RAT, LIVER, S-9, AROCLOR 1254 (30%), Method: PREINCUBATION", "value": "active; positive"}, {"measurement": "mutagenic call", "setting": "[6]", "value": "active; positive"}, {"measurement": "mutagenic call", "setting": "[7]", "value": "inactive; negative"}, {"measurement": "mutagenic call", "setting": "Test System: CHINESE HAMSTER V-79, Strain/Indicator: V-79/6-THIOGUANINE, Metabolic Activation: NONE, Method: FLASK ASSAY", "value": "inactive; negative"}, {"measurement": "mutagenic call", "setting": "[3]", "value": "active; positive"}]}
{"smiles": "C[As+](C)(C)CC(=O)[O-]", "values": [{"measurement": "mutagenic call", "setting": "Test System: AMES SALMONELLA TYPHIMURIUM, Strain/Indicator: TA97, Metabolic Activation: NONE", "value": "inactive; negative"}, {"measurement": "mutagenic call", "setting": "Test System: AMES SALMONELLA TYPHIMURIUM, Strain/Indicator: TA97, Metabolic Activation: RAT, GUT-FLORA EXTRACT", "value": "inactive; negative"}, {"measurement": "mutagenic call", "setting": "Test System: AMES SALMONELLA TYPHIMURIUM, Strain/Indicator: TA97, Metabolic Activation: RAT, LIVER, S-9, AROCLOR 1254", "value": "inactive; negative"}, {"measurement": "mutagenic call", "setting": "Test System: AMES SALMONELLA TYPHIMURIUM, Strain/Indicator: TA98, Metabolic Activation: NONE", "value": "inactive; negative"}, {"measurement": "mutagenic call", "setting": "Test System: AMES SALMONELLA TYPHIMURIUM, Strain/Indicator: TA98, Metabolic Activation: RAT, GUT-FLORA EXTRACT", "value": "inactive; negative"}, {"measurement": "mutagenic call", "setting": "Test System: AMES SALMONELLA TYPHIMURIUM, Strain/Indicator: TA98, Metabolic Activation: RAT, LIVER, S-9, AROCLOR 1254", "value": "inactive; negative"}, {"measurement": "mutagenic call", "setting": "Test System: AMES SALMONELLA TYPHIMURIUM, Strain/Indicator: TA100, Metabolic Activation: NONE", "value": "inactive; negative"}, {"measurement": "mutagenic call", "setting": "Test System: AMES SALMONELLA TYPHIMURIUM, Strain/Indicator: TA100, Metabolic Activation: RAT, GUT-FLORA EXTRACT", "value": "inactive; negative"}, {"measurement": "mutagenic call", "setting": "Test System: AMES SALMONELLA TYPHIMURIUM, Strain/Indicator: TA100, Metabolic Activation: RAT, LIVER, S-9, AROCLOR 1254", "value": "inactive; negative"}, {"measurement": "mutagenic call", "setting": "Test System: CHINESE HAMSTER V-79, Strain/Indicator: V-79/6-THIOGUANINE (HGPRT), Metabolic Activation: NONE, Method: SUSPENSION/PLATE", "value": "inactive; negative"}, {"measurement": "mutagenic call", "setting": "Test System: CHINESE HAMSTER V-79, Strain/Indicator: V-79/6-THIOGUANINE (HGPRT), Metabolic Activation: RAT, LIVER, S-9, AROCLOR 1254, Method: SUSPENSION/PLATE", "value": "inactive; negative"}, {"measurement": "mutagenic call", "setting": "Test System: Mouse lymphoma, Strain/Indicator: L5178Y (TK+/TK-), Metabolic Activation: None, Method: Microwell", "value": "inactive; negative"}]}
{"smiles": "N=C(N)c1ccccc1", "values": [{"measurement": "mutagenic call", "setting": "Test System: AMES SALMONELLA TYPHIMURIUM, Strain/Indicator: TA98, Metabolic Activation: CO631 CELLS, Method: PREINCUBATION", "value": "inactive; negative"}, {"measurement": "mutagenic call", "setting": "[8]", "value": "inactive; negative"}, {"measurement": "mutagenic call", "setting": "Test System: AMES SALMONELLA TYPHIMURIUM, Strain/Indicator: TA98, Metabolic Activation: RABBIT, LIVER, S-9, Method: PREINCUBATION", "value": "inactive; negative"}, {"measurement": "mutagenic call", "setting": "Test System: AMES SALMONELLA TYPHIMURIUM, Strain/Indicator: TA98, Metabolic Activation: RAT HEPATOCYTES, Method: PREINCUBATION", "value": "inactive; negative"}, {"measurement": "mutagenic call", "setting": "Test System: AMES SALMONELLA TYPHIMURIUM, Strain/Indicator: TA98, Metabolic Activation: RAT, LIVER, S-9, AROCLOR 1254, ATP, Method: PREINCUBATION", "value": "inactive; negative"}, {"measurement": "mutagenic call", "setting": "Test System: AMES SALMONELLA TYPHIMURIUM, Strain/Indicator: TA98, Metabolic Activation: RAT, LIVER, S-9, AROCLOR 1254, Method: PREINCUBATION", "value": "inactive; negative"}, {"measurement": "mutagenic call", "setting": "Test System: AMES SALMONELLA TYPHIMURIUM, Strain/Indicator: TA100, Metabolic Activation: RABBIT, LIVER, S-9, Method: PREINCUBATION", "value": "inactive; negative"}, {"measurement": "mutagenic call", "setting": "Test System: AMES SALMONELLA TYPHIMURIUM, Strain/Indicator: TA100, Metabolic Activation: RAT HEPATOCYTES, Method: PREINCUBATION", "value": "inactive; negative"}, {"measurement": "mutagenic call", "setting": "Test System: AMES SALMONELLA TYPHIMURIUM, Strain/Indicator: TA100, Metabolic Activation: RAT, LIVER, S-9, AROCLOR 1254, ATP, Method: PREINCUBATION", "value": "inactive; negative"}, {"measurement": "mutagenic call", "setting": "Test System: AMES SALMONELLA TYPHIMURIUM, Strain/Indicator: TA100, Metabolic Activation: RAT, LIVER, S-9, AROCLOR 1254, Method: PREINCUBATION", "value": "inactive; negative"}]}
